The source made the active and inactive calls. No cut-off for these calls is given here.
Experiments:
[1] = target: Vascular endothelial growth factor receptor 2 (Homo sapiens, UniProt P35968); experiment: Inhibition of KDR
[2] = target: Insulin-like growth factor 1 receptor (Homo sapiens, UniProt P08069); experiment: Inhibition of IGF1R
[3] = target: Hepatocyte growth factor receptor (Homo sapiens, UniProt P08581); experiment: Inhibition of cMet
[4] = target: Proto-oncogene tyrosine-protein kinase receptor Ret (Homo sapiens, UniProt P07949); experiment: Inhibition of Ret
[5] = target: Proto-oncogene tyrosine-protein kinase Src (Homo sapiens, UniProt P12931); experiment: Inhibition of Src
[6] = target: Tyrosine-protein kinase ABL1 (Homo sapiens, UniProt P00519); experiment: Inhibition of c-Abl
[7] = Inhibition of PKA
[8] = system: Bacillus cereus; experiment: Antibacterial activity against Bacillus cereus ATCC 14579 at 300 ug/disk after 24 hrs by paper disk diffusion test; type: functional; conditions: ATCC 14579, 24 h, read-out: IZ
[9] = system: Streptomyces chartreusis; experiment: Antibacterial activity against Streptomyces chartreusis NRRL 11407 at 300 ug/disk after 24 hrs by paper disk diffusion test; type: functional; conditions: NRRL 11407, 24 h, read-out: IZ
[10] = system: Escherichia coli; experiment: Antibacterial activity against Escherichia coli ATCC 11303 at 300 ug/disk after 24 hrs by paper disk diffusion test; type: functional; conditions: for zone of inhibition at 300 µg/disc: ATCC 11303, 24 h, read-out: IZ
[11] = system: Candida albicans; experiment: Antimicrobial activity against Candida albicans IP444 at 300 ug/disk after 24 hrs by paper disk diffusion test; type: functional; conditions: for zone of inhibition at 300 µg/disc: read-out: IZ
[12] = target: Cyclin-dependent kinase 2 (Homo sapiens, UniProt P24941); experiment: Inhibition of CDK2/Cyclin A

Hepatocyte growth factor receptor, sequence (P08581 whole entry): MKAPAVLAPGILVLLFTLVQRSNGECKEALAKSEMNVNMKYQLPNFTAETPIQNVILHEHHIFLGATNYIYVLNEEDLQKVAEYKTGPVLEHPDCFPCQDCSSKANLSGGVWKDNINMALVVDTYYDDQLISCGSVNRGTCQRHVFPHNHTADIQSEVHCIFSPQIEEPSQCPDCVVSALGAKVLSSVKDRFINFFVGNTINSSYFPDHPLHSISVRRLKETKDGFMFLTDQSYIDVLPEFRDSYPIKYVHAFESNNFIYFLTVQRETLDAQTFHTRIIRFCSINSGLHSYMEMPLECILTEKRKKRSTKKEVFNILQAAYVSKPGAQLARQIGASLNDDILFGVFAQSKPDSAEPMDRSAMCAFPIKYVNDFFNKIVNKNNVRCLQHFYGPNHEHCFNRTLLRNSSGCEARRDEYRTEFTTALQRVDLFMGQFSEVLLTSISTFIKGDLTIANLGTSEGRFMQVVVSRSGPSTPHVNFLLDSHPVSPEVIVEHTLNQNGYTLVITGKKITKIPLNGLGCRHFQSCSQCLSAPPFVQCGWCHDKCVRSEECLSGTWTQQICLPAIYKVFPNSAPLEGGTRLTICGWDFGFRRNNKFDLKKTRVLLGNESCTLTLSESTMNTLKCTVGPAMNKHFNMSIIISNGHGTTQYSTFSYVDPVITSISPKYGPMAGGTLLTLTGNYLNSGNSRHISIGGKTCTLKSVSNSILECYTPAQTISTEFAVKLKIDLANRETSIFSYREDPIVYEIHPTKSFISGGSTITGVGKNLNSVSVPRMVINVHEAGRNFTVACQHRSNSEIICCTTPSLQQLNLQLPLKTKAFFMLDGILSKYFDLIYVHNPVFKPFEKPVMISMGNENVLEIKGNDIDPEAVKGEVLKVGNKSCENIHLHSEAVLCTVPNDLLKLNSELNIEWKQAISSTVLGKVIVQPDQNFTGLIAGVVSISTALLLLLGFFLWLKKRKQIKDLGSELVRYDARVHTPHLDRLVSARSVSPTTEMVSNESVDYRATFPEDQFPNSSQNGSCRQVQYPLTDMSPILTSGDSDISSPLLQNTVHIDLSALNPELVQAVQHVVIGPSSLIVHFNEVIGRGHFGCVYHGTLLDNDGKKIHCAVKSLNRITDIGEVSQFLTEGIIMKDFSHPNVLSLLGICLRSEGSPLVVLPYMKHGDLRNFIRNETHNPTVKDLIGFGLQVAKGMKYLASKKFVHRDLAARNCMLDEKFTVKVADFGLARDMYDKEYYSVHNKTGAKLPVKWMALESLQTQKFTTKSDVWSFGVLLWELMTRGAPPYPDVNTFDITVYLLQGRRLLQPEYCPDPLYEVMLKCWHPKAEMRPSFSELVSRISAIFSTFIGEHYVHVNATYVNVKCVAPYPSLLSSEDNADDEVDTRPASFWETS
Tyrosine-protein kinase ABL1, sequence (P00519 whole entry): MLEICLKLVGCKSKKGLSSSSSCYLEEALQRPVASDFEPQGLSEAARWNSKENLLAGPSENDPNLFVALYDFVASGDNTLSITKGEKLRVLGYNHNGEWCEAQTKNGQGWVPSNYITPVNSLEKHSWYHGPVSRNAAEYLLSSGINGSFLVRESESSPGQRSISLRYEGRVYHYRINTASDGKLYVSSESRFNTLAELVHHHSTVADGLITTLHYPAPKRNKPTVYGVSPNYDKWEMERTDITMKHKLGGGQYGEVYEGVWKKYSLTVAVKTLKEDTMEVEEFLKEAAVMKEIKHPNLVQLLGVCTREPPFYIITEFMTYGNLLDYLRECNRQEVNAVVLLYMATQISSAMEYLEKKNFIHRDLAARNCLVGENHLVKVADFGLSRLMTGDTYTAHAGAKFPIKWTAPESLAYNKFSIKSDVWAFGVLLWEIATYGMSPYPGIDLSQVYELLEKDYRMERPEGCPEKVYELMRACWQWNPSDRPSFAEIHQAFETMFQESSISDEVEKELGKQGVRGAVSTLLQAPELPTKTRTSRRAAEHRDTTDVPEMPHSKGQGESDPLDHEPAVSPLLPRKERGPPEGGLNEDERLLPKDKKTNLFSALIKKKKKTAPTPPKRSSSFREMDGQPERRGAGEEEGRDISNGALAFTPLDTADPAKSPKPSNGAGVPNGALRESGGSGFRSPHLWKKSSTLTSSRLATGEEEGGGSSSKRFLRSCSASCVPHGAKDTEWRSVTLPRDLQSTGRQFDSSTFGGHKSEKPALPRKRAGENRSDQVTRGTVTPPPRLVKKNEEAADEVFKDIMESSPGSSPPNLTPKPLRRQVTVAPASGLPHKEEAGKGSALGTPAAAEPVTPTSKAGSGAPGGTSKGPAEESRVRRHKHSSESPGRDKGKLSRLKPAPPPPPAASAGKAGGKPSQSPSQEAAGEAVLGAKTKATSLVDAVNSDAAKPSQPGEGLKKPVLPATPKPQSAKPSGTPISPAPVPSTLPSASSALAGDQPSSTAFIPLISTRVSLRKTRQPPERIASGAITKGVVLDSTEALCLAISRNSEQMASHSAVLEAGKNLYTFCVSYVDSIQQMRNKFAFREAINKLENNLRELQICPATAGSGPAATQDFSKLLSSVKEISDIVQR
Vascular endothelial growth factor receptor 2, sequence (P35968 whole entry): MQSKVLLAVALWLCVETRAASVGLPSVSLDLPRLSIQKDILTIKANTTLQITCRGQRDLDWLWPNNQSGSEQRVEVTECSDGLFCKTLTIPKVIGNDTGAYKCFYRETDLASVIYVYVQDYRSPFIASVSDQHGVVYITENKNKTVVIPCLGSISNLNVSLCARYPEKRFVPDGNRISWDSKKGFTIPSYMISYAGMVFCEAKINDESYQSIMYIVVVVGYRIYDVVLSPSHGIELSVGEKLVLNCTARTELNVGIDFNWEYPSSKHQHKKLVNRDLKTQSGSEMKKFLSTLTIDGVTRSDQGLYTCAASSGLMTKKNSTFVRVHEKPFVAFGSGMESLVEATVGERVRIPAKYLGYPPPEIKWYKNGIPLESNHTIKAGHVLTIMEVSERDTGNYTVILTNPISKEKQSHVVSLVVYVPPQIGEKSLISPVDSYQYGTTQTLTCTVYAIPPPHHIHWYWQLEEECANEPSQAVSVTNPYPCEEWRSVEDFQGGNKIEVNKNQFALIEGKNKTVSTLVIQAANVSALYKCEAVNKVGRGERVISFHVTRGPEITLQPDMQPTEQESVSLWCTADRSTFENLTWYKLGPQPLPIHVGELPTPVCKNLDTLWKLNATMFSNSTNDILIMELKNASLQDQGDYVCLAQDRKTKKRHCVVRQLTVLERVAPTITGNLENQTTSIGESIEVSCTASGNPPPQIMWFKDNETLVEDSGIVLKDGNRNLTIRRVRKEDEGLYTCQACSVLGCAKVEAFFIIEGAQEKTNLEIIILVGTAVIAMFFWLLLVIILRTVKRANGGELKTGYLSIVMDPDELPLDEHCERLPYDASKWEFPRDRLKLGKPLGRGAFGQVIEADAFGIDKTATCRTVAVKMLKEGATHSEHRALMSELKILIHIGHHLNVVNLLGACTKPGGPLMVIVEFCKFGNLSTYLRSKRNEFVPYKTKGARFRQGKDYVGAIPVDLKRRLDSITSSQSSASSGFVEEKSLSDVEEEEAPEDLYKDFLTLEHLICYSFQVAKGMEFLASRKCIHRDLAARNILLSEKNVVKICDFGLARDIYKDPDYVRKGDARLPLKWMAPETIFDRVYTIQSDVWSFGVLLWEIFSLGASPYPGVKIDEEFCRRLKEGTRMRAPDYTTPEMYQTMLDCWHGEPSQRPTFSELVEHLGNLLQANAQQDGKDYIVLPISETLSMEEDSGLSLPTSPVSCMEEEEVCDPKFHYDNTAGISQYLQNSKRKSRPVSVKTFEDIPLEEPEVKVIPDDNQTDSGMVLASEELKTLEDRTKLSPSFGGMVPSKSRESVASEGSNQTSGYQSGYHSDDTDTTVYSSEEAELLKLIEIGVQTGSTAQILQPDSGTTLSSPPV
Proto-oncogene tyrosine-protein kinase Src, sequence (P12931 2-536 limits assumed): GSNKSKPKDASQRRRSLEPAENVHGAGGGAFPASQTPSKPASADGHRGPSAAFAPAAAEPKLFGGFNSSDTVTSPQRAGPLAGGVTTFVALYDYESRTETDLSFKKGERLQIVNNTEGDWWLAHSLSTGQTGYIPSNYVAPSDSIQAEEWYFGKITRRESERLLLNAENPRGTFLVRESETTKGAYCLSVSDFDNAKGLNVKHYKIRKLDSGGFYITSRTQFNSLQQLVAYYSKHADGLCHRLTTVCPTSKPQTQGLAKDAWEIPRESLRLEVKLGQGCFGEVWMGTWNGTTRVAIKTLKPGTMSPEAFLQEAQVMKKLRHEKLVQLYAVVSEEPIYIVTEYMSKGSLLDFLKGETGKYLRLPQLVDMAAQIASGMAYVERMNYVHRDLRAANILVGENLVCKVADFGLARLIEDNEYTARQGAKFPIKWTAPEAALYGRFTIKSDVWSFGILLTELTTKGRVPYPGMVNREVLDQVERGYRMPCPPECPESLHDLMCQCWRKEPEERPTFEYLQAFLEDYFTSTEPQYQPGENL

Row | IC50 [1] | IC50 [2] | IC50 [3] | IC50 [4] | IC50 [5] | IC50 [6] | IC50 [7] | IC50 [12] | Structure (SMILES) | zone of inhibition at 300 µg/disc [8] | zone of inhibition at 300 µg/disc [9] | Activity [10] | zone of inhibition at 300 µg/disc [11] | zone of inhibition at 300 µg/disc [10] | Activity [11]
1 | > 10 µM | > 10 µM | > 10 µM | > 10 µM | > 10 µM | > 10 µM | > 10 µM | 6.6 µM | N[C@@H](CCCN/C=C1\C(=O)Nc2ccc(Br)cc21)C(=O)O | 7 mm | 8 mm | inactive |  |  | inactive
2 | > 10 µM | > 10 µM | > 10 µM | > 10 µM | > 10 µM | > 10 µM | > 10 µM |  | N[C@@H](CCCCN/C=C1\C(=O)Nc2ccccc21)C(=O)O | 6 mm | 6 mm | inactive | 6 mm |  | 

Further lines, the compound ahead of its results:

Row | Structure (SMILES) | IC50 [1] | IC50 [2] | IC50 [3] | IC50 [4] | IC50 [5] | IC50 [6] | IC50 [7] | IC50 [12] | zone of inhibition at 300 µg/disc [8] | zone of inhibition at 300 µg/disc [9] | Activity [10] | zone of inhibition at 300 µg/disc [11] | zone of inhibition at 300 µg/disc [10] | Activity [11]
3 | N[C@@H](CCCCN/C=C1\C(=O)Nc2ccc(Br)cc21)C(=O)O | > 10 µM | > 10 µM | > 10 µM | > 10 µM | > 10 µM | > 10 µM | > 10 µM |  | 6 mm | 7 mm | inactive | 6 mm |  | 
4 | CC1(C)S[C@@H]2[C@H](NC(=O)[C@H](N)c3ccccc3)C(=O)N2[C@H]1C(=O)O [AMPICILLIN] |  |  |  |  |  |  |  |  | 13 mm | 25 mm |  |  | 31 mm | 
5 | N[C@@H](CCCN/C=C1\C(=O)Nc2ccccc21)C(=O)O | > 10 µM | > 10 µM | > 10 µM | > 10 µM | > 10 µM | > 10 µM | > 10 µM |  | 7 mm | 10 mm |  | 6 mm | 6 mm | 
6 | C[C@@H]1[C@H](O)[C@@H](C)/C=C/C=C/C=C/C=C/C=C/C=C/C=C/[C@H](O[C@@H]2O[C@H](C)[C@@H](O)[C@H](N)[C@@H]2O)C[C@@H]2O[C@](O)(C[C@@H](O)C[C@@H](O)[C@H](O)CC[C@@H](O)C[C@@H](O)CC(=O)O[C@H]1C)C[C@H](O)[C@H]2C(=O)O [AMPHOTERICIN B] |  |  |  |  |  |  |  |  |  |  |  | 13 mm |  | 

Source: ChEMBL document CHEMBL1154450, “Synthesis and biological evaluation of diversely substituted indolin-2-ones” (Eur J Med Chem, 2008)
